The nature of the data set: solvent given as SMILES.

“And” between values parts separate entries of the source, which are not always exact repeats. Identical values can stand only once.

As to `O=C1c2ccccc2C2=Cc3ccc4ccccc4[n+]3[B-](F)(F)N12`, the absorption maximum runs as follows: (in CCO) 450 nm; (in Cc1ccccc1) 458 nm; (in ClCCl) 454 nm.
`S=P1(c2ccccc2)c2cccc3ccc4ccc1n4c23` (stereo unspecified): the absorption maximum (in ClCCl) was determined as 407 nm.
In turn, `CC(C)(C)c1cc2ccc3c(-c4ccc(N(c5ccccc5)c5ccccc5)cc4)ccc4c5nc6cc(C#N)c(C#N)cc6nc5c(c1)c2c34` displayed an absorption maximum (in Cc1ccccc1) of 500 nm.
`COc1cc2c3sc4ccccc4c3c3cncnc3c2c(OC)c1OC` yielded an absorption maximum (in ClCCl) of 376 nm.
Take `CCCCN1c2ccccc2Sc2cc(/C=C\c3cc(=O)oc4ccc(C)cc34)ccc21`: for the setting “in ClC(Cl)Cl”, the absorption maximum came out at 423 nm.
For `Cn1ccc(-c2nc3ccccc3nc2/C=C/N2CCCC2)c1`, for the setting “in CC#N”, the absorption maximum worked out at 445 nm.
Regarding `CC(C)(C)c1cc2c3c(c1)c1cc(C(C)(C)C)cc4c1n3B1c3c-2cccc3-c2cc(C(C)(C)C)cc3c5cc(C(C)(C)C)cc-4c5n1c23`, the absorption maximum (in C1CCOC1) is 439 nm.
For the compound `CN1C(=O)c2cccc3c(-n4c5ccccc5c5ccccc54)ccc(c23)C1=O`, the absorption maximum is given as 408 nm (in C1CCOC1), 402 nm (in CCCCCC), 404 nm (in ClC(Cl)Cl) and 414 nm (in ClCCl).
Regarding `c1cc2ccc3ccc(-n4c5ccccc5c5ccccc54)c4ccc(c1)c2c34`, the absorption maximum (in CCCCCC) amounted to 344 nm, the absorption maximum (in CCO) was found to be 344 nm, the absorption maximum (in CCOC(C)=O) was found to be 344 nm and the absorption maximum (in ClCCl) is on record as 347 nm.
Consider `Cc1cc(N2c3ccccc3C(C)(C)c3ccccc32)ccc1-c1cc(-c2ccc(N3c4ccccc4C(C)(C)c4ccccc43)cc2C)ncn1`, for which the absorption maximum (in Cc1ccccc1) came out at 375.94 nm.
The compound `O=[N+]([O-])c1ccc(S(=O)(=O)Nc2ccc(C#Cc3ccc4ccc5ccc(C#Cc6ccc(NS(=O)(=O)c7ccc([N+](=O)[O-])cc7[N+](=O)[O-])cc6)c6ccc3c4c56)cc2)c([N+](=O)[O-])c1` returned an absorption maximum (in CO) of 402 nm.
Turning to `O=C1c2ccccc2C2=Cc3cccc[n+]3[B-](F)(F)N12`, the absorption maximum (in CCO) was found to be 391 nm; the absorption maximum (in Cc1ccccc1) was determined as 399 nm; the absorption maximum (in ClCCl) was 396 nm and 385 nm.
As to `CCCCOC(=O)c1cc(Cl)c2c3c(Cl)cc4c5c(cc(Cl)c(c6c(Oc7ccc(OC)cc7)cc(C(=O)OCCCC)c1c26)c53)C(=O)N(c1c(C(C)C)cccc1C(C)C)C4=O`, the absorption maximum (in Cc1ccccc1) came out at 519 nm.
On to `COc1ccc(C2=C(c3ccc(OC)cc3)c3cccc4c5c(cc(c34)O2)=NC(C#N)C(C#N)N=5)cc1` (stereo unspecified), for which the absorption maximum (in ClCCl) is 511 nm.
As to `COC(=O)c1cc(=O)n(C)c2cc(-c3ccc(Oc4ccccc4)cc3)sc12`, the absorption maximum is, setting by setting: (in CC#N) 396 nm; (in ClCCl) 398 nm.
As to `O=C(c1ccc2c3c(cccc13)-c1cccc3c1C2CC=C3)c1c(Cc2ccccc2)c2ccc3cccc4c5cccc6ccc1c(c65)c2c34` (stereo unspecified), under “in ClCCl”, the absorption maximum came out at 467 nm.
The compound `c1ccc(-c2nc(-c3ccccc3)nc(-c3ccc(-n4c5ccccc5c5cc6c7ccccc7n7c8ccccc8c(c54)c67)cc3)n2)cc1` registered an absorption maximum (in Cc1ccccc1) of 383 nm.
As for `CC(C)(C)c1ccc2c(c1)c1cc(C(C)(C)C)ccc1n2-c1ccccc1-c1nc(-c2ccccc2P(=O)(c2ccccc2)c2ccccc2)nc(-c2ccccc2P(=O)(c2ccccc2)c2ccccc2)n1`, the absorption maximum is, setting by setting: (in C1CCOC1) 343.56 nm; (in CC#N) 347.54 nm; (in CC(C)=O) 343.88 nm; (in CN(C)C=O) 345.95 nm; (in Cc1ccccc1) 320.35 nm; (in ClC(Cl)Cl) 342.93 nm. Moreover, for the setting “in ClCCl”, the absorption maximum is given as 341.49 nm.
`F[B-]1(F)N2C=CN=CC2=[N+]2[N+]1=Cc1c(-c3ccccc3)cc(-c3ccccc3)n1[B-]2(F)F` displayed an absorption maximum (in ClCCl) of 528 nm.

The values above are taken from the Deep4Chem optical property database.
